Experimental data: patent US7915276B2, “Berberrubine derivatives having antifungal activities” (priority 2006, dated 2011)

Columns and labels:
[1] = target: T1, chitin synthase 1 of Candida albicans chs2 Δ chs 3 Δ (Candida albicans, UniProt P23316); assay: In vitro enzyme assay for chitin synthase 1 of Candida albicans (enzyme 1); type: biochemical; details: relative to polyoxin D (50% inhibitory activity = value 5)
T1 construct: Crude enzyme was prepared using the Candida albicans chs2 Δ chs 3 Δ mutant; endogenous in cells; host or cells: Candida albicans chs2Δ/chs2Δ chs3Δ/chs3Δ mutant; 130,000 x g membrane pellet
In short: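 Trypsin-activated crude membrane chitin synthase 1 from C. albicans chs2Δ chs3Δ was incubated 90 min at 30 °C with 1.1 mM UDP-[14C]GlcNAc and 2 mM cobalt acetate in Tris-HCl pH 7.5. Filtered TCA precipitate was counted by scintillation; values are scores 1–8 against polyoxin D (5 = same concentration).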

[2] = target: T2, chitin synthase 2 of Saccharomyces cerevisiae ECY38-38A(pAS6) (Saccharomyces cerevisiae, UniProt P14180); assay: In vitro enzyme assay for chitin synthase 2 of Saccharomyces cerevisiae (enzyme 2); type: biochemical; details: relative to polyoxin D (50% inhibitory activity = value 5)
T2 construct: made in house; host or cells: Saccharomyces cerevisiae ECY38-38A (chs1-23 chs2::LEU2 cal1/csd2) carrying plasmid pAS6, grown in galactose medium; 130,000 x g membrane pellet
In short: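 Values are scores: 5 means 50% inhibition at the same concentration as polyoxin D, lower scores 2- to 16-fold higher concentration, higher scores ½ to ⅛. Radiolabel from 1.1 mM UDP-[14C]-GlcNAc was incorporated into TCA-insoluble chitin over 90 min at 30 °C (pH 7.5 Tris, 2 mM Co2+). The enzyme was a trypsin-activated membrane fraction from CHS2-only S. cerevisiae ECY38-38A(pAS6).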

[3] = tested on: Candida parapsilosis ATCC 34136; assay: In vitro antifungal activity (MIC), NCCLS method; type: cell-based; details: Candida parapsilosis ATCC 34136; 48 hours
In short: (§1)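 ATCC reference strains tested by NCCLS MIC method. Final inoculum 5×10^2 to 2.5×10^3 cell/mL over a two-fold dilution series; 48 h incubation.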

[4] = tested on: Candida tropicalis ATCC 13803; assay: In vitro antifungal activity (MIC), NCCLS method; type: cell-based; details: 48 hours
In short: as §1

[5] = tested on: Candida albicans ATCC 10231; assay: In vitro antifungal activity (MIC), NCCLS method; type: cell-based; details: 48 hours
In short: as §1

[6] = tested on: Mucor ramosissimus ATCC 90286; assay: In vitro antifungal activity (MIC), NCCLS method; type: cell-based; details: 48 hours
In short: as §1

[7] = tested on: Aspergillus fumigatus ATCC 16424; assay: In vitro antifungal activity (MIC), NCCLS method; type: cell-based; details: 48 hours
In short: as §1

[8] = tested on: Aspergillus terreus ATCC 46941; assay: In vitro antifungal activity (MIC), NCCLS method; type: cell-based; details: 48 hours
In short: as §1

[9] = tested on: Candida lusitaniae ATCC 42720; assay: In vitro antifungal activity (MIC), NCCLS method; type: cell-based; details: 48 hours
In short: as §1

[10] = tested on: Candida glabrata ATCC 48435; assay: In vitro antifungal activity (MIC), NCCLS method; type: cell-based; details: Candida glabrata ATCC 48435; 48 hours
In short: as §1

[11] = tested on: Candida albicans A207 (clinical isolate); assay: In vitro antifungal activity (MIC), NCCLS method; type: cell-based; details: 48 hours
In short: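 According to NCCLS guidance, each compound is diluted two-fold and challenged with a fungal inoculum of 5×10^2 to 2.5×10^3 cell/mL (final). Incubation lasts 48 hours.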

[12] = tested on: Cryptococcus neoformans ATCC 36556; assay: In vitro antifungal activity (MIC), NCCLS method; type: cell-based; details: RPMI 1640 medium, 72 hours
In short: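 Broth microdilution per NCCLS: two-fold serial dilutions of test compound inoculated with fungal suspension at a final 5×10^2 to 2.5×10^3 cell/mL. Strains other than Cryptococcus neoformans were incubated 48 hours before MIC reading.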

[13] = tested on: Aspergillus flavus ATCC 64025; assay: In vitro antifungal activity (MIC), NCCLS method; type: cell-based; details: 48 hours
In short: as §1

Candida krusei ATCC 6258 = assay: In vitro antifungal activity (MIC), NCCLS method; type: cell-based; details: 48 hours
In short: as §1

T1 sequence (P23316 whole entry, stated change not applied): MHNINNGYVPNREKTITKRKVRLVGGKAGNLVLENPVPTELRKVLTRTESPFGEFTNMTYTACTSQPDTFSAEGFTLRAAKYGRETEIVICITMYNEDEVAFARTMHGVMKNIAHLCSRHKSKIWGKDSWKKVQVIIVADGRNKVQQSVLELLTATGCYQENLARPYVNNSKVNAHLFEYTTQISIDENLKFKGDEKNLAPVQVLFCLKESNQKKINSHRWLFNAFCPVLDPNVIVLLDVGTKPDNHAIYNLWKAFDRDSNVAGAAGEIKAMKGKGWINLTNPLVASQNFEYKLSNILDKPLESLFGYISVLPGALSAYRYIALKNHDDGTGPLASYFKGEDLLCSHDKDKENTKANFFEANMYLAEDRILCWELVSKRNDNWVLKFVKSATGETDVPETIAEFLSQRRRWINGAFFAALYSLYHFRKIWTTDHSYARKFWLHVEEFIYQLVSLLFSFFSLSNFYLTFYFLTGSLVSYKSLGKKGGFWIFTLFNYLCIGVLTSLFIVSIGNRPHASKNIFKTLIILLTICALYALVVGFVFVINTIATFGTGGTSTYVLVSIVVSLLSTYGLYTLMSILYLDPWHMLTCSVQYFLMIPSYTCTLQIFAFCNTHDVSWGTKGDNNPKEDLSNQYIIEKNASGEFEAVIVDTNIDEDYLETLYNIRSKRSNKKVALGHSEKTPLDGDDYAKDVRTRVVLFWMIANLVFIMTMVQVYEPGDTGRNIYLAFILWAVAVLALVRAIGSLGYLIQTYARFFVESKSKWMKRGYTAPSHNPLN
T2 sequence (P14180 whole entry): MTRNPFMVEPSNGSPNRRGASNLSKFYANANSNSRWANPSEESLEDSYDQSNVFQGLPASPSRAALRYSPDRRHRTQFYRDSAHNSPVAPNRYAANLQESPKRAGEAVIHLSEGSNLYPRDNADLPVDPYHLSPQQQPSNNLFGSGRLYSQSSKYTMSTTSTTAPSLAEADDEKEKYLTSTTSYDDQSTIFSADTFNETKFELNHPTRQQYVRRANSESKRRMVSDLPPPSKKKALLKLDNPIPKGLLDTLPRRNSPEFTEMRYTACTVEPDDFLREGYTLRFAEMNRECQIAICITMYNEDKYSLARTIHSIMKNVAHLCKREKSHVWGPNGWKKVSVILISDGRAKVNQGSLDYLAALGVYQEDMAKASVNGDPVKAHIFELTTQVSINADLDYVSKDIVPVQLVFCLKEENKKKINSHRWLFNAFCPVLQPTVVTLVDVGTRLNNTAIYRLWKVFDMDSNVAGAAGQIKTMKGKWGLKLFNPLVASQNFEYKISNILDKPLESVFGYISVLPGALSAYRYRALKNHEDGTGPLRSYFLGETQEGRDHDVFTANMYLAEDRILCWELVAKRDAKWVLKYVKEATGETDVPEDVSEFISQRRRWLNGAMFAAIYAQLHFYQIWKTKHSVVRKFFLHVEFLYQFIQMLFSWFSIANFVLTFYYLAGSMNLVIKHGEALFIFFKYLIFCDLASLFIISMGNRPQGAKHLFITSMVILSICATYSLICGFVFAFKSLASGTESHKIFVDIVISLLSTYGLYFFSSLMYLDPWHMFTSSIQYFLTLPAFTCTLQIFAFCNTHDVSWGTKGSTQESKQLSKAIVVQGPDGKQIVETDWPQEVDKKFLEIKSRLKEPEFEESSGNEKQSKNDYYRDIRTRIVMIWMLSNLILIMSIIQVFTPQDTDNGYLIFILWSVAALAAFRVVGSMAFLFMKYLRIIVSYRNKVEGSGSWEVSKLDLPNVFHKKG

Substance: 13-(4-Isopropylbenzyl)-9-O-octylberberrubine chloride [Compound No. 52]
- Relative activity Enzyme 1 [1]: 2 (Compounds having the inhibitory activity at 2-fold, 4-fold, 8-fold and 16-fold higher concentrations than that of polyoxin D were given the values of 4, 3, 2 and 1, respectively)
- Relative activity Enzyme 2 [2]: 6 (compounds having the inhibitory activity at ½, ¼ and ⅛ lower concentrations than that of polyoxin D were given the values of 6, 7 and 8, respectively)
- MIC (minimum inhibitory concentration) [3]: 1 µg/mL
- MIC (minimum inhibitory concentration) [4]: 0.125 µg/mL
- MIC (minimum inhibitory concentration) [5]: 0.25 µg/mL
- MIC (minimum inhibitory concentration) [6]: 2 µg/mL
- MIC (minimum inhibitory concentration) [7]: 2 µg/mL
- MIC (minimum inhibitory concentration) [8]: 4 µg/mL
- MIC (minimum inhibitory concentration) [9]: 0.5 µg/mL
- MIC (minimum inhibitory concentration) [10]: 1 µg/mL
- MIC (minimum inhibitory concentration) [11]: 0.25 µg/mL
- MIC (minimum inhibitory concentration) [12]: 0.5 µg/mL
- MIC (minimum inhibitory concentration) [13]: 4 µg/mL
- MIC (minimum inhibitory concentration) (Candida krusei ATCC 6258): 1 µg/mL

Substance: 13-(4-Isopropylbenzyl)-9-O-octylberberrubine iodide [Compound No. 20]
- Relative activity Enzyme 1 [1]: 3 (Compounds having the inhibitory activity at 2-fold, 4-fold, 8-fold and 16-fold higher concentrations than that of polyoxin D were given the values of 4, 3, 2 and 1, respectively)
- Relative activity Enzyme 2 [2]: 5 (A compound having the same inhibitory activity as that of polyoxin D at the same concentration was given the value 5)
- MIC (minimum inhibitory concentration) [3]: 2 µg/mL
- MIC (minimum inhibitory concentration) [4]: 0.125 µg/mL
- MIC (minimum inhibitory concentration) [5]: 0.25 µg/mL
- MIC (minimum inhibitory concentration) [6]: 2 µg/mL
- MIC (minimum inhibitory concentration) [7]: 2 µg/mL
- MIC (minimum inhibitory concentration) [8]: 4 µg/mL
- MIC (minimum inhibitory concentration) [9]: 0.5 µg/mL
- MIC (minimum inhibitory concentration) [10]: 2 µg/mL
- MIC (minimum inhibitory concentration) [11]: 0.25 µg/mL
- MIC (minimum inhibitory concentration) [12]: 1 µg/mL
- MIC (minimum inhibitory concentration) [13]: 4 µg/mL
- MIC (minimum inhibitory concentration) (Candida krusei ATCC 6258): 1 µg/mL

Substance: 13-(4-isopropylbenzyl)-9-O-crotylberberrubine chloride [Compound No. 56]
- Relative activity Enzyme 1 [1]: 2 (Compounds having the inhibitory activity at 2-fold, 4-fold, 8-fold and 16-fold higher concentrations than that of polyoxin D were given the values of 4, 3, 2 and 1, respectively)
- Relative activity Enzyme 2 [2]: 6 (compounds having the inhibitory activity at ½, ¼ and ⅛ lower concentrations than that of polyoxin D were given the values of 6, 7 and 8, respectively)
- MIC (minimum inhibitory concentration) [3]: 4 µg/mL
- MIC (minimum inhibitory concentration) [4]: 0.5 µg/mL
- MIC (minimum inhibitory concentration) [5]: 0.5 µg/mL
- MIC (minimum inhibitory concentration) [6]: 4 µg/mL
- MIC (minimum inhibitory concentration) [7]: 2 µg/mL
- MIC (minimum inhibitory concentration) [8]: 4 µg/mL
- MIC (minimum inhibitory concentration) [9]: 1 µg/mL
- MIC (minimum inhibitory concentration) [10]: 4 µg/mL
- MIC (minimum inhibitory concentration) [11]: 0.5 µg/mL
- MIC (minimum inhibitory concentration) [12]: 1 µg/mL
- MIC (minimum inhibitory concentration) [13]: 8 µg/mL
- MIC (minimum inhibitory concentration) (Candida krusei ATCC 6258): 1 µg/mL

Substance: 13-(4-tert-Butylbenzyl)-9-O-(3-hydroxypropyl)berberrubine chloride [Compound No. 43]
- Relative activity Enzyme 1 [1]: 4 (Compounds having the inhibitory activity at 2-fold, 4-fold, 8-fold and 16-fold higher concentrations than that of polyoxin D were given the values of 4, 3, 2 and 1, respectively)
- Relative activity Enzyme 2 [2]: 7 (compounds having the inhibitory activity at ½, ¼ and ⅛ lower concentrations than that of polyoxin D were given the values of 6, 7 and 8, respectively)
- MIC (minimum inhibitory concentration) [3]: 2 µg/mL
- MIC (minimum inhibitory concentration) [4]: 0.5 µg/mL
- MIC (minimum inhibitory concentration) [5]: 0.5 µg/mL
- MIC (minimum inhibitory concentration) [6]: 4 µg/mL
- MIC (minimum inhibitory concentration) [7]: 2 µg/mL
- MIC (minimum inhibitory concentration) [8]: 8 µg/mL
- MIC (minimum inhibitory concentration) [9]: 2 µg/mL
- MIC (minimum inhibitory concentration) [10]: 2 µg/mL
- MIC (minimum inhibitory concentration) [11]: 0.5 µg/mL
- MIC (minimum inhibitory concentration) [12]: 1 µg/mL
- MIC (minimum inhibitory concentration) [13]: 8 µg/mL
- MIC (minimum inhibitory concentration) (Candida krusei ATCC 6258): 1 µg/mL

Substance: 13-(4-tert-Butylbenzyl)-9-O-(3-hydroxypropyl)berberrubine iodide [Compound No. 11]
- Relative activity Enzyme 1 [1]: 4 (Compounds having the inhibitory activity at 2-fold, 4-fold, 8-fold and 16-fold higher concentrations than that of polyoxin D were given the values of 4, 3, 2 and 1, respectively)
- Relative activity Enzyme 2 [2]: 6 (compounds having the inhibitory activity at ½, ¼ and ⅛ lower concentrations than that of polyoxin D were given the values of 6, 7 and 8, respectively)
- MIC (minimum inhibitory concentration) [3]: 2 µg/mL
- MIC (minimum inhibitory concentration) [4]: 0.5 µg/mL
- MIC (minimum inhibitory concentration) [5]: 0.5 µg/mL
- MIC (minimum inhibitory concentration) [6]: 4 µg/mL
- MIC (minimum inhibitory concentration) [7]: 2 µg/mL
- MIC (minimum inhibitory concentration) [8]: 8 µg/mL
- MIC (minimum inhibitory concentration) [9]: 2 µg/mL
- MIC (minimum inhibitory concentration) [10]: 2 µg/mL
- MIC (minimum inhibitory concentration) [11]: 0.5 µg/mL
- MIC (minimum inhibitory concentration) [12]: 1 µg/mL
- MIC (minimum inhibitory concentration) [13]: 8 µg/mL
- MIC (minimum inhibitory concentration) (Candida krusei ATCC 6258): 1 µg/mL

Substance: 13-(4-tert-Butylbenzyl)-9-O-(4-isopropylbenzyl)berberrubine bromide [Compound No. 16]
- Relative activity Enzyme 1 [1]: 3 (Compounds having the inhibitory activity at 2-fold, 4-fold, 8-fold and 16-fold higher concentrations than that of polyoxin D were given the values of 4, 3, 2 and 1, respectively)
- Relative activity Enzyme 2 [2]: 5 (A compound having the same inhibitory activity as that of polyoxin D at the same concentration was given the value 5)
- MIC (minimum inhibitory concentration) [3]: 8 µg/mL
- MIC (minimum inhibitory concentration) [4]: 1 µg/mL
- MIC (minimum inhibitory concentration) [5]: 1 µg/mL
- MIC (minimum inhibitory concentration) [6]: 8 µg/mL
- MIC (minimum inhibitory concentration) [7]: 4 µg/mL
- MIC (minimum inhibitory concentration) [8]: 8 µg/mL
- MIC (minimum inhibitory concentration) [9]: 4 µg/mL
- MIC (minimum inhibitory concentration) [10]: 2 µg/mL
- MIC (minimum inhibitory concentration) [11]: 1 µg/mL
- MIC (minimum inhibitory concentration) [12]: 2 µg/mL
- MIC (minimum inhibitory concentration) [13]: 8 µg/mL
- MIC (minimum inhibitory concentration) (Candida krusei ATCC 6258): 2 µg/mL

Substance: 13-(4-tert-Butylbenzyl)-9-O-(4-isopropylbenzyl)berberrubine chloride [Compound No. 48]
- Relative activity Enzyme 1 [1]: 2 (Compounds having the inhibitory activity at 2-fold, 4-fold, 8-fold and 16-fold higher concentrations than that of polyoxin D were given the values of 4, 3, 2 and 1, respectively)
- Relative activity Enzyme 2 [2]: 5 (A compound having the same inhibitory activity as that of polyoxin D at the same concentration was given the value 5)
- MIC (minimum inhibitory concentration) [3]: 8 µg/mL
- MIC (minimum inhibitory concentration) [4]: 1 µg/mL
- MIC (minimum inhibitory concentration) [5]: 1 µg/mL
- MIC (minimum inhibitory concentration) [6]: 8 µg/mL
- MIC (minimum inhibitory concentration) [7]: 4 µg/mL
- MIC (minimum inhibitory concentration) [8]: 8 µg/mL
- MIC (minimum inhibitory concentration) [9]: 4 µg/mL
- MIC (minimum inhibitory concentration) [10]: 2 µg/mL
- MIC (minimum inhibitory concentration) [11]: 1 µg/mL
- MIC (minimum inhibitory concentration) [12]: 2 µg/mL
- MIC (minimum inhibitory concentration) [13]: 8 µg/mL
- MIC (minimum inhibitory concentration) (Candida krusei ATCC 6258): 2 µg/mL

Substance: 13-(4-tert-Butylbenzyl)-9-O-(4-tert-butylbenzyl)berberrubine bromide [Compound No. 15]
- Relative activity Enzyme 1 [1]: 3 (Compounds having the inhibitory activity at 2-fold, 4-fold, 8-fold and 16-fold higher concentrations than that of polyoxin D were given the values of 4, 3, 2 and 1, respectively)
- Relative activity Enzyme 2 [2]: 5 (A compound having the same inhibitory activity as that of polyoxin D at the same concentration was given the value 5)
- MIC (minimum inhibitory concentration) [3]: 8 µg/mL
- MIC (minimum inhibitory concentration) [4]: 1 µg/mL
- MIC (minimum inhibitory concentration) [5]: 1 µg/mL
- MIC (minimum inhibitory concentration) [6]: 8 µg/mL
- MIC (minimum inhibitory concentration) [7]: 4 µg/mL
- MIC (minimum inhibitory concentration) [8]: 8 µg/mL
- MIC (minimum inhibitory concentration) [9]: 4 µg/mL
- MIC (minimum inhibitory concentration) [10]: 4 µg/mL
- MIC (minimum inhibitory concentration) [11]: 1 µg/mL
- MIC (minimum inhibitory concentration) [12]: 2 µg/mL
- MIC (minimum inhibitory concentration) [13]: 8 µg/mL
- MIC (minimum inhibitory concentration) (Candida krusei ATCC 6258): 4 µg/mL
